Assays:
[1] = tested on: human colorectal cancer cell line HCT-8 cells; experiment: Sensor device response to depolarization induced by KCl; assay type: cell-based
Experimental: (§1) In the present example, the sensor device 200 shown in FIG. 2 was used for detection, wherein the distance between the response electrode of the sensor device and the gate end: 65 μm; and the area of the detection region: 10×60 μm^2. Moreover, a specific aptamer of a human colorectal cancer cell line HCT-8 cell was bonded to the response electrode of the sensor device.
(§2) In the present embodiment, source and drain properties were measured and recorded using an Agilent B1530/B1500A semiconductor parameter analyzer. Operating conditions: VD=2.5 V; Vg=2 V; pulse duration=50 μs. The change in source current before and after a gate bias is applied is defined as the current gain.
In the present embodiment, human colorectal cancer cell line HCT-8 cells were used as the target cells. The HCT-8 cells were cultured in an RPMI-1640 cell culture medium (Invitrogen Co., USA). During a subsequent electrical measurement, the HCT-8 cells were suspended in a Hank balanced salt solution having calcium ions and magnesium ions (hereinafter HBSS w/Ca&Mg), a Hank balanced salt solution without calcium ions and magnesium ions (hereinafter HBSS w/o Ca&Mg), or a Hank balanced salt solution having calcium ions (hereinafter HBSS w/Ca) to prepare a test solution. In the Hank balanced salt solution having calcium ions and magnesium ions (HBSS w/Ca&Mg), the calcium ions were 1.2 mM and the magnesium ions are 0.8 mM. […]

[2] = tested on: human colorectal cancer cell line HCT-8 cells; experiment: Cadmium block of calcium channels (sensor device response); assay type: cell-based
Experimental: as §1, §2
In the present embodiment, human colorectal cancer cell line HCT-8 cells were used as the target cells. The HCT-8 cells were cultured in an RPMI-1640 cell culture medium (Invitrogen Co., USA). […]
In experimental example 3, HBSS w/Ca and HBSS w/Ca containing different cadmium ion concentrations (5 uM, 10 uM, 20 uM, 50 uM, and 100 uM) are used as reference solutions, and the baselines of the sensor device were calculated using the reference solutions. […]

[Cl-].[K+] [KCl]
value of the detection current (second current gain minus first current gain, Δ current gain) ([1]; KCl concentration of 5 mM in HBSS w/Ca&Mg, cells have polarized potential): positive
value of the detection current (second current gain minus first current gain, Δ current gain) ([1]; KCl concentration of 10 mM to 30 mM in HBSS w/Ca&Mg, cells depolarized): negative

[Cd+2] [cadmium ion]
value of the detection current (Δ current gain) ([2]; cadmium concentration further increased from 20 μM to 100 μM in HBSS w/Ca, cells depolarized): negative
detection current (Δ current gain) ([2]; cadmium ion concentrations of 10 μM and 20 μM in HBSS w/Ca, cells repolarized): positive

— patent publication US11029279B2, “Method of detecting cells” (National Tsing Hua University, priority 2018, dated 2021)
